EC50 data for 21 molecules are collected here from patent US12492187B2, “Factor XI activation inhibitors” (Merck Sharp & Dohme LLC, priority 2020, dated 2025).

Where a name gives a salt, the structure may show the parent alone.

The target of this experiment is T1, Human coagulation factor (F)XI (Homo sapiens, UniProt P03951).
T1 construct: purchased Haematologic Technologies Inc. (FXI); Enzyme Research Laboratories (FXIIa) HCXI-150 (FXI); HFXIIa (FXIIa)
T1 sequence (P03951 19-625): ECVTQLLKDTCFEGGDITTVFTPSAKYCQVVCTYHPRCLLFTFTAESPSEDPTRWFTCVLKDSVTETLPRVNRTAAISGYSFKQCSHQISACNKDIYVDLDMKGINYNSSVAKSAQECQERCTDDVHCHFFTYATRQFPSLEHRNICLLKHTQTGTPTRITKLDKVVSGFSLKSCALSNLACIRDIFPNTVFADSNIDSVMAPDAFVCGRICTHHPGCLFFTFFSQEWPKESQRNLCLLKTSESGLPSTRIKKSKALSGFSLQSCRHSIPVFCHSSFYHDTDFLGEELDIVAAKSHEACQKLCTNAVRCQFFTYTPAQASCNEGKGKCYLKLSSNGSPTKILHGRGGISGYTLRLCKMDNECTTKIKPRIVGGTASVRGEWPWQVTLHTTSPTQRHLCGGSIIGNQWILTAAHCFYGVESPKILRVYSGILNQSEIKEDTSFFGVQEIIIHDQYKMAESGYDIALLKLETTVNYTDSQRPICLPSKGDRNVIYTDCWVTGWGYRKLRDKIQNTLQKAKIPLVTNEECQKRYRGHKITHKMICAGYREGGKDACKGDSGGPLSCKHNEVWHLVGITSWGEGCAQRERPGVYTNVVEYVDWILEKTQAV
Briefly: Inhibition of FXIIa mediated activation of FXI (activation of human Factor XI to XIa by human Factor α-XIIa). It is filed as biochemical. The note with it: human FXI pre-incubated with compound 30 min at 22° C., activation by human FXIIa 60 min, z-GPR-AFC substrate, fluorescence 405/510 nm, 4 parameter logistic fit; read-out: Inhibition of FXIIa meditated activation of FXI. The method, then:
Inhibition of FXIIa Mediated Activation of FXI
Activation of Human Factor XI to XIa by Human Factor α-XIIa
Assay was performed in 50 mM HEPES, 150 mM NaCl, 5 mM CaCl2, 0.1% PEG-8000, pH 7.4 buffer in black, flat-bottom, polystyrene microplates (Corning, Cat #3573). Serial dilutions (10-point, 3.333-fold) of the test compounds delivered as 10 mM DMSO stocks were prepared in the Labcyte Echo-qualified PP 384 well microplates (Labcyte, Cat #P-05525). Human coagulation factor (F)XI (Haematologic Technologies Inc., Cat #HCXI-150, concentration 46 nM, 19.5 uL) was pre-incubated with 0.5 uL of the test compounds for 30 min at 22° C. The activation was initiated by addition of 10 uL of human coagulation factor (F)XIIa (Enzyme Research Laboratories, Cat #HFXIIa, concentration 30 nM) and reaction proceeded for 60 min at 22° C., after which it was quenched by addition of a selective inhibitor of FXIIa (Compound 54 in WO2018093695) concentration 600 uM in DMSO, 1 uL). 10 min after the quench, 29 uL of z-GPR-AFC substrate (Sigma, Cat #C0980-10MG, concentration 200 uM) was added into each well and the detection reaction proceeded for 60 min at 22° C. Fluorescence at 405/510 nm was measured in end-point mode using an Envision plate-reader (Perkin Elmer). IDBS Activity Base XE (ABase) analysis using 4 parameter logistic fit was performed to determine Minimum, Maximum, EC50, and Slope Factor for each compound.
Take `Cc1nc(C(=O)N2CCC(C#N)(c3ccccc3)CC2)cc(C(=O)N2CCC(Cc3ccccc3)CC2)c1C` [Example 30, 1-[4-(4-benzylpiperidine-1-carbonyl)-5,6-dimethyl-pyridine-2-carbonyl]-4-phenyl-piperidine-4-carbonitrile]: the EC50 was 47.8 nM. As to `Cc1nc(C(=O)N2CCC(C#N)(c3ccccc3)CC2)cc(C(=O)N2CCC(Cc3nccs3)CC2)c1C` [Example 28, 1-[5,6-dimethyl-4-[4-(thiazol-2-ylmethyl)piperidine-1-carbonyl]pyridine-2-carbonyl]-4-phenyl-piperidine-4-carbonitrile], the EC50 turned out to be 62.2 nM.

In the case of `Cc1cnc(C(=O)N2CCC(C#N)(c3ccccc3)CC2)cc1C(=O)N1CC(c2ccc(F)cc2)C1` [Example 9, 1-(4-(3-(4-fluorophenyl)azetidine-1-carbonyl)-5-methylpicolinoyl)-4-phenylpiperidine-4-carbonitrile], the EC50 came out at 107 nM.

Regarding `Cc1cnc(C(=O)N2CCC(C#N)(c3ccccc3)CC2)cc1C(=O)N1CC(c2ccccc2)C1` [Example 8, 1-(5-methyl-4-(3-phenylazetidine-1-carbonyl)picolinoyl)-4-phenylpiperidine-4-carbonitrile], the EC50 came out at 119 nM. For `Cc1cnc(C(=O)N2CCC(C#N)(c3ccccc3)CC2)cc1C(=O)N1CCC2c3cc(F)ccc3OC2C1` (stereo not drawn) [Example 14, 1-(4-(6-fluoro-1,2,3,4,4a,9a-hexahydrobenzofuro[2,3-c]pyridine-2-carbonyl)-5-methylpicolinoyl)-4-phenylpiperidine-4-carbonitrile], the EC50 is 45.1 nM. For `Cc1cnc(C(=O)N2CCC(C#N)(c3ccccc3)CC2)cc1C(=O)N1CCN(C2CCCC2)C(=O)C1` [Example 11, 1-(4-(4-cyclopentyl-3-oxopiperazine-1-carbonyl)-5-methylpicolinoyl)-4-phenylpiperidine-4-carbonitrile], the EC50 turned out to be 164 nM. To `CC(C)(C)C1CCN(C(=O)c2cc(C(=O)N3CCC(C#N)(c4ccccc4)CC3)ncc2C2CC2)CC1` [Example 15, 1-(4-(4-(tert-butyl)piperidine-1-carbonyl)-5-cyclopropylpicolinoyl)-4-phenylpiperidine-4-carbonitrile, 2,2,2-trifluoroacetate salt] belongs 42.5 nM; to `Cc1cnc(C(=O)N2CCC(C#N)(c3ccccc3)CC2)cc1C(=O)N1CCC(CCc2ccccc2)CC1` [Example 6, 1-(5-methyl-4-(4-phenethylpiperidine-1-carbonyl)picolinoyl)-4-phenylpiperidine-4-carbonitrile], 150 nM. As for `Cc1cnc(C(=O)N2CCC(C#N)(c3ccccc3)CC2)cc1C(=O)N1CCC(Cc2ccccc2)CC1` [Example 10, 1-(4-(4-benzylpiperidine-1-carbonyl)-5-methylpicolinoyl)-4-phenylpiperidine-4-carbonitrile], the EC50 came to 74.1 nM. To `Cc1nc(C(=O)N2CCC(C#N)(c3ccccc3)CC2)cc(C(=O)N2CCC(C)(c3ccccc3)CC2)c1C` [Example 31, 1-[5,6-dimethyl-4-(4-methyl-4-phenyl-piperidine-1-carbonyl)pyridine-2-carbonyl]-4-phenyl-piperidine-4-carbonitrile] belongs 124 nM; to `Cc1cnc(C(=O)N2CCC(C#N)(c3ccccc3)CC2)cc1C(=O)N1CCC2c3ccc(C#N)cc3OC2C1` (stereo not drawn) [Example 22, 2-[2-(4-cyano-4-phenyl-piperidine-1-carbonyl)-5-methyl-pyridin-1-ium-4-carbonyl]-3,4,4a,9a-tetrahydro-1H-benzofuro[2,3-c]pyridine-7-carbonitrile; 2,2,2-trifluoroacetate], 54.4 nM; to `Cc1cnc(C(=O)N2CCC(C#N)(c3ccccc3)CC2)cc1C(=O)N1CCC(C)(N2CCC(F)(F)C2)CC1` [Example 3, 1-(4-(4-(3,3-difluoropyrrolidin-1-yl)-4-methylpiperidine-1-carbonyl)-5-methylpicolinoyl)-4-phenylpiperidine-4-carbonitrile], 61.8 nM. Consider `CC(C)(C)C1CCN(C(=O)c2cc(C(=O)N3CCC(C#N)(c4ccccc4)CC3)ncc2C#N)CC1` [Example 25, 4-(4-tert-butylpiperidine-1-carbonyl)-6-(4-cyano-4-phenyl-piperidine-1-carbonyl)pyridin-1-ium-3-carbonitrile; 2,2,2-trifluoroacetate], for which the EC50 was 29.4 nM.

On to `Cc1cnc(C(=O)N2CCC(C#N)(c3ccccc3)CC2)cc1C(=O)N1CCC2c3c(F)cc(F)cc3OC2C1` (stereo not drawn) [Example 19, 1-(4-(5,7-difluoro-1,2,3,4,4a,9a-hexahydrobenzofuro[2,3-c]pyridine-2-carbonyl)-5-methylpicolinoyl)-4-phenylpiperidine-4-carbonitrile], for which the EC50 is 49.3 nM. For `Cc1cnc(C(=O)N2CCC(C#N)(c3ccccc3)CC2)cc1C(=O)N1CC2CC(C1)C2(F)c1ccccc1` (stereo not drawn) [Example 12, 1-(4-(6-fluoro-6-phenyl-3-azabicyclo[3.1.1]heptane-3-carbonyl)-5-methylpicolinoyl)-4-phenylpiperidine-4-carbonitrile], the EC50 was determined as 137 nM. For the molecule `Cc1nc(C(=O)N2CCC(C#N)(c3ccccc3)CC2)cc(C(=O)N2CCN(C3(c4ccccc4)CC3)CC2)c1C` [Example 29, 1-[5,6-dimethyl-4-[4-(1-phenylcyclopropyl)piperazine-1-carbonyl]pyridine-2-carbonyl]-4-phenyl-piperidine-4-carbonitrile], the EC50 was 41.1 nM. Take `N#CC1(c2ccccc2)CCN(C(=O)c2cc(C(=O)N3CCC(N4CCC(F)(F)C4)CC3)c(C(F)(F)F)cn2)CC1` [Example 18, 1-[4-[4-(3,3-difluoropyrrolidin-1-ium-1-yl)piperidine-1-carbonyl]-5-(trifluoromethyl)pyridine-2-carbonyl]-4-phenyl-piperidine-4-carbonitrile; 2,2,2-trifluoroacetate]: the EC50 stood at 40 nM. With `Cc1cnc(C(=O)N2CCC(C#N)(c3ccccc3)CC2)cc1C(=O)N1CCC2c3cc(F)c(F)cc3OC2C1` (stereo not drawn) [Example 24, 1-[4-(6,7-difluoro-3,4,4a,9a-tetrahydro-1H-benzofuro[2,3-c]pyridine-2-carbonyl)-5-methyl-pyridin-1-ium-2-carbonyl]-4-phenyl-piperidine-4-carbonitrile; 2,2,2-trifluoroacetate] the figure was 62.2 nM; with `Cc1cnc(C(=O)N2CCC(C#N)(c3ccccc3)CC2)cc1C(=O)N1CC[C@@H]2c3ccccc3O[C@@H]2C1` (racemic) [Example 2, 1-(4-((4aR,9aS)-1,2,3,4,4a,9a-hexahydrobenzofuro[2,3-c]pyridine-2-carbonyl)-5-methylpicolinoyl)-4-phenylpiperidine-4-carbonitrile and 1-(4-((4aS,9aR)-1,2,3,4,4a,9a-hexahydrobenzofuro[2,3-c]pyridine-2-carbonyl)-5-methylpicolinoyl)-4-phenylpiperidine-4-carbonitrile], 39.4 nM. Consider `Cc1cnc(C(=O)N2CCC(C#N)(c3ccccc3)CC2)cc1C(=O)N1CCC(N2CCC(F)(F)C2)CC1` [Example 1, 1-(4-(4-(3,3-difluoropyrrolidin-1-yl)piperidine-1-carbonyl)-5-methylpicolinoyl)-4-phenylpiperidine-4-carbonitrile, 2,2,2-trifluoroacetate salt], for which the EC50 came to 42 nM. For `Cc1cnc(C(=O)N2CCC(C#N)(c3ccccc3)CC2)cc1C(=O)N1CC(c2cccc(F)c2)C1` [Example 4, 1-(4-(3-(3-fluorophenyl)azetidine-1-carbonyl)-5-methylpicolinoy1)-4-phenylpiperidine-4-carbonitrile], the EC50 is 197 nM.
